Laboratory results taken from PMC6013238, “Development of novel NEMO-binding domain mimetics for inhibiting IKK/NF-κB activation” (PLoS Biology, 2018).
“And” between values parts separate entries of the source, which are not always exact repeats. Equal values may be shown once.

Experiments:
mdx mice = assay: Chronic treatment of mdx mice, laminin stain and minimum Feret diameter of myofibers; type: in vivo, mouse; conditions: Fig 7F, TA muscle, 4 wk treatment, single mice
Source text: Fig 7 NBD mimetics improve muscular pathology and grip strength in mdx mice. (A) Shown is the treatment regimen with NBD mimetics in mdx mice. (B) Hematoxylin–eosin staining of TA muscle from 7-wk-old, treated or untreated mdx mice. Images were taken at magnification of 20×. Representative images were shown for each treatment group. […] (E) TA muscle from 7-wk-old, treated or untreated mdx mice was stained with laminin by IHC to outline myofibers. Overall images of TA muscle were shown on the left side, and the inset panel images were shown on the right side. (F) Quantitation of minimum Feret diameter in centrally and noncentrally nucleated myofibers. (G) Forelimb force determined by grip strength test. Five-wk-old (2 wk post treatment) and 7-wk-old (4 wk post treatment) mdx mice, treated or untreated, were tested for forelimb grip strength. Five sequential tests were performed, and the force was normalized to body weight. Data were shown as mean +/− SEM. Dosages used are as follows: SR12343 (30 mg/kg), SR12460 (30 mg/kg), and 8K-NBD peptide (10 mg/kg). n = 6–7 each group. *P < 0.05, **P < 0.01. Underlying data can be found in S1 Data. eMyHC, embryonic myosin heavy chain; IHC, immunohistochemistry; NBD, NEMO-binding domain; NEMO, NF-κB essential modulator; Pax7, paired box protein 7; qRT-PCR, quantitative real-time polymerase chain reaction; TA, tibialis anterior.
To determine whether SR12343 and SR12460 improve muscle pathology, TA muscle was stained with hematoxylin–eosin to assess inflammatory infiltration, necrosis, central nucleation, and fibrosis. […] In addition, Masson trichrome stain was conducted to further measure muscle fibrosis. Chronic treatment with SR12343 reduced muscle fibrosis (blue) in diaphragm and TA muscle tissues in comparison to control group (Fig 8A & 8B). To further quantitate the extent of inflammation in mdx muscle tissues, diaphragm and TA muscle were immunostained for cluster of differentiation 68 (CD68), a macrophage marker. Treatment with SR12343 reduced the number of CD68^+ cells by almost 50% per myofiber in both diaphragm and TA tissues (Fig 8A & 8B). […] To quantify the average fiber size in an unbiased way, TA muscle was stained with laminin to outline myofibers, and Feret diameter of all myocytes was quantitated in a whole muscle section.
To ensure rigorous quantitation of average fiber size, TA muscle was stained with laminin to outline myofibers. […] Centrally nucleated fibers were determined by first eroding the binary mask of the muscle fibers so that only the central portion of each fiber was present. […] Using the original muscle fiber mask, Feret diameters for centrally nucleated and noncentrally nucleated fibers were then measured.

IL-6 production = assay: Mouse IL-6 ELISA of supernatant of LPS-stimulated Raw 264.7 cells; type: cell-based; conditions: LPS 1 μg/ml 24 h; for mIL-6 in supernatant (ELISA): Fig 4D; for Effect on LPS-induced IL-6 production (ELISA): 25 and 50 μM
Experimental: Fig 4 Modified lead NBD mimetics inhibit TNF-α- and LPS-induced NF-κB activation by disrupting the association between NEMO and IKKβ. (A) Structures of top NBD mimetics. (B) Measurement of NF-κB activation in response to TNF-α by using Dual-luciferase reporter assays. HEK293 cells cotransfected with NF-κB luciferase reporter and SV40-Renilla plasmids were pretreated with DMSO or listed small molecules at 0, 25, 50, 100, and 150 μM for 30 min, followed by the induction of TNF-α for 3 h. Data shown are representative of 2–3 independent experiments. […] Raw 264.7 cells were pretreated with indicated drugs for 30 min and then stimulated with 1 μg/ml of LPS for 2 h. Cells were then harvested for RNA extraction and qRT-PCR analysis. Drug concentrations used are as follows: IKKi VII (2 μM), 8K-NBD peptide (200 μM), SR12343 (50 μM), SR12460 (50 μM), SR12454 (50 μM), and SR11481 (50 μM). Data are representative of 2 independent experiments. […] Raw 264.7 cells pretreated with DMSO or drugs at indicated concentrations were exposed to 1 μg/ml of LPS for 24 h, and supernatant was collected for ELISA analysis of mouse IL-6. *P < 0.05; **P < 0.01. Underlying data can be found in S1 Data. HEK293, human embryonic kidney 293 cells; IKK, IκB kinase; IL-6, interleukin 6; LPS, lipopolysaccharide; NBD, NEMO-binding domain; n.d., nondetectable; NEMO, NF-κB essential modulator; NF-κB, nuclear factor κB; qRT-PCR, […] real-time polymerase chain reaction; TNF-α; tumor necrosis factor α. TEXT PRINTED IN THE PICTURE: (D) ikki VII: mIL-6 (ng/ml): n.d. | (D) SR12460: mIL-6 (ng/ml): n.d. (50μM) | (D) SR12454: mIL-6 (ng/ml): n.d. (50μM) DOUBTS OF THE COPYIST ABOUT THIS PICTURE: Panel D: the only printed results are the three "n.d." labels. They stand in place of bars and are assigned to ikki VII, SR12460 50μM and SR12454 50μM by their position on the axis. All other results are shown only as bars, with no printed numbers.
To confirm the qRT-PCR results, the levels of IL-6 production in Raw 264.7 cells activated by LPS were analyzed by ELISA.
Raw 264.7 cells were grown in 96-well plates and pretreated with vehicle, IKKi VII (2 μM), and small molecules (at indicated concentration) for 1 h, followed by the stimulation with 1 μg/ml of LPS. Supernatant was collected 24 h later for ELISA analysis. IL-6 concentration was measured using a mouse IL-6 ELISA kit (BD) according to the manufacturer’s instructions.

Structure (SMILES)	Feret 90's of non-centrally nucleated fibers (mdx mice)	Feret's of centrally nucleated fibers (mdx mice)	mIL-6 in supernatant (ELISA) (IL-6 production; 25 μM)	mIL-6 in supernatant (ELISA) (IL-6 production; 50 μM) [ng/mL]	Effect on LPS-induced IL-6 production (ELISA) (IL-6 production)
O=C(CNCCc1cc(F)cc(F)c1)Nc1ccc(Cl)cn1 [SR12460]	42.38 and 57.7 and 50.27 and 41.83 and 37.95	36.18 and 50.79 and 43.17 and 46.06 and 34.34	1.4838 ng/mL and 1.2369 ng/mL and 1.4569 ng/mL	0	inhibit IL-6 secretion significantly in a dose-dependent manner
O=C(CNc1ccc(Cl)cn1)NCCc1cccc(Br)c1 [SR12343]	30.77 and 40.26 and 44.29 and 46.1	29.8 and 35.12 and 37.33 and 39.93	2.6915 ng/mL and 2.4446 ng/mL and 1.843 ng/mL		inhibited IL-6 production, but was not as effective as SR12460 and SR12454
